# Target: T1, sphingosine-1-phosphate receptor 1 (S1PR1) (Homo sapiens, UniProt P21453)
# T1 construct: full-length, C-terminal TEV fusion
# Assay: LinkLight S1PR1/β-arrestin interaction assay in HEK293 cells
# Type: cell-based
# T1 sequence (P21453 whole entry, the tested form may be a part): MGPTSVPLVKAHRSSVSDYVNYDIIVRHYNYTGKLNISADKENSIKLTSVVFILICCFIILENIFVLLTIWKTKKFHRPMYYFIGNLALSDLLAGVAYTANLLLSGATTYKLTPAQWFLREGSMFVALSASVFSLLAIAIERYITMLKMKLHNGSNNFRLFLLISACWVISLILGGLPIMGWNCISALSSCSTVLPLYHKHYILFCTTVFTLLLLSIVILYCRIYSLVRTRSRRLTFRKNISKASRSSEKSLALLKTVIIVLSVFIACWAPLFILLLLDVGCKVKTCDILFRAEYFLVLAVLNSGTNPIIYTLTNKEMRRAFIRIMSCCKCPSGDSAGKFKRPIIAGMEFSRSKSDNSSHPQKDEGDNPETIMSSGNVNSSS
# T1 sequence (P32121 whole entry partner, the tested form may be a part): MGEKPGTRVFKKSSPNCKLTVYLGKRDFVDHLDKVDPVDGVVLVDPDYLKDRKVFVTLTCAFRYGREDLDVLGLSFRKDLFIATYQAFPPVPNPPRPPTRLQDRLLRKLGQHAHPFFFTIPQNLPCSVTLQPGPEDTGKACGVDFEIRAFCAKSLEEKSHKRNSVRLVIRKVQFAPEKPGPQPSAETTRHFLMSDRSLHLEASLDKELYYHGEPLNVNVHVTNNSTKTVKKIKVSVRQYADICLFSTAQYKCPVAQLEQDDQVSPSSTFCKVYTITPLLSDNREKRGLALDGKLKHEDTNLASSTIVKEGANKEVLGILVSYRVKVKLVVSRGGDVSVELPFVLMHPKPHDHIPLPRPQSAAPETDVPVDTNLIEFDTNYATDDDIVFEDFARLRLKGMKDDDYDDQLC
compound,measurement,value
CCCCCCCCCCCCC/C=C/[C@@H](O)[C@@H](N)COP(=O)(O)O [S1P],EC50,129 nM

# From paper PMC6673703, “14-3-3 signal adaptor and scaffold proteins mediate GPCR trafficking” (Scientific Reports, 2019)
